Data on two compounds can be found in patent US20060280687A1, “Compounds for tissue imaging and methods of use thereof” (priority 2005, published 2006).

Data set [1] concerns MDA-MB-435 human breast carcinoma cells. In words: In vitro cell uptake by fluorescence microscopy, MDA-MB-435. The class given is cell-based. The conditions noted are these: 1 hour. How it is done:
(§1) For fluorescence microscopic studies, 1 M cells were cultured on 35 mm MatTek glass bottom culture dishes (Cat #: P35G-0-14-C, Ashland, Mas.). After 24 hours, the cells were washed with phosphate-buffered saline (PBS) and then incubated at 37° C. or 4° C. in the presence of 100 nM Cy5.5-2DG for 1 hour. Afterwards, cells were washed in 1 mL ice-cold PBS. The fluorescence signal of the cells was recorded using an Axiovert 200M fluorescence microscope (Carl Zeiss MicroImaging, Inc., Thornwood, N.Y.) equipped with a Cy5.5 filter set (Exciter, HQ 650/20 nm; Emitter, HQ 675/35 nm). An AttoArc HBO 100 W microscopic illuminator was used as a light source for fluorescence excitation. Images were taken using a thermoelectrically cooled charge-coupled device (CCD) (Micromax, model RTE/CCD-576, Princeton Instruments Inc., Trenton, N.J.) and analyzed using WinView Software version 1.6.2 (Princeton Instruments Inc., Trenton, N.J.)
FIGS. 9A-9D illustrate the results of a similar study using MDA-MB-435 human breast carcinoma cells. Incubation at 37° C. […] (FIGS. 9B and 9D).

Data set [2] relates to human glioblastoma xenograft (U87MG). The data set is described as follows: In vivo fluorescence imaging of mice bearing a U87MG glioblastoma xenograft. The method, then:
All animal studies were carried out in compliance with federal and local institutional rules for the conduct of animal experimentation. Female athymic nude mice (nu/nu, 10-12 weeks old), obtained from Charles River Laboratories (Boston, Mas.), were inoculated subcutaneously in the right foreleg with 5×10^6 U87MG cultured glioblastoma cells suspended in 100 μL of PBS. Two to three weeks after inoculation, when the tumors reached 0.4-0.6 cm in diameter, the tumor bearing mice were subject to in vivo imaging studies.
In vivo fluorescence imaging was performed with a cooled charged-coupled device (CCD) camera (Xenogen IVIS™ 200 small animal imaging system, Xenogen, Alameda, Calif.). A Cy5.5 filter set was used for acquiring Cy5.5-2DG fluorescence in vivo. Identical illumination settings (lamp voltage, filters, f/stop, field of views, binning) were used for acquiring all images, and fluorescence emission was normalized to photons per second per centimeter squared per steradian (p/s/cm^2/sr). Images were acquired and analyzed using Living Image® D2.5 software (Xenogen).
Mice were injected via tail vein with 50 or 500 pmol Cy5.5-2DG and subjected to optical imaging at various time points post injection with a sampling of multiple angles while remaining sedated. […]
All the data are given as means ± SD of n independent measurements. Statistical analysis was performed using a Student's t-test. Statistical significance was assigned for P values <0.05. For determining tumor contrast, mean fluorescence intensities of the tumor area at the right shoulder of the animal (T) and of the corresponding area at the left shoulder (N) were calculated by means of the region of interest function of Living Image software(Xenogen) integrated with Igor (Wavemetrics, Lake Oswego, Oreg.). Dividing T by N yielded the contrast between tumor tissue and normal tissue.
In vivo studies were done to evaluate performance of the Cy5.5-2DG compound in tumor-bearing subjects. As described in Example 3, mice were inoculated in the right foreleg with 5×10^6 U87MG cultured glioblastoma cells. Two to three weeks after inoculation, when the tumors reached 0.4-0.6 cm in diameter, the tumor-bearing mice were used for in vivo imaging studies.
In one study, the mice received 500 pmol of Cy5.5-2DG compound, injected via tail vein. At various times post injection of the probe, an animal was sedated and then imaged using a small animal imaging system available under the trade designation IVIS® (Xenogen, Alameda, Calif.). In other studies described below with respect to FIGS. 22-23, imaging was also done using an imaging system from ART eXplore Optix (ART Inc./GE Healthcare) and compared to imaging using the imaging system IVIS®. FIGS. 10A-10M are images generated with the IVIS® system of sedated, live mice in the prone position as a function of time after administration of 500 pmol of Cy5.5-2DG. […] At 1 hour (FIG. 10B), 2 hours (FIG. 10C), 4 hours (FIG. 10D), and 5 hours (FIG. 10E), the probe progressively clears from the body and begins to localize in the tumor in the right foreleg. In fact, by two hours post injection, accumulation of the compound in the tumor is readily apparent in the image (FIG. 10C). […] The presence of the probe in the tumor is apparent in all the images, long after the probe has cleared from healthy tissue.

The test system of another data set is C6 rat glioma cells. The data set is described as follows: In vitro cell uptake by fluorescence microscopy, C6. The settings on record: 1 hour. It is filed as cell-based. How it is done:
as §1
Additional in vitro studies were conducted with several other tumor cells lines, including C6 rat glioma cells. Following the procedure set forth in Example 2, the glioma cells were incubated for one hour at 37° C. or at 4° C., and light images and fluorescent images were taken. The light images are shown in FIGS. 6A and 6B and the fluorescent images in FIGS. 6C and 6D. Both light images show cells in the image field.

The nature of data set [3]: Stability on in vitro incubation in mouse serum, HPLC analysis. The class given is in vitro ADME. The conditions noted are these: 30 minutes incubation in mouse serum. The method, then: The stability of the Cy5.5-2DG compound was evaluated by incubating the compound in vitro in mouse serum and analyzing the serum as a function of time by high pressure liquid chromatography (HPLC). […] The main peak is observed at 15.2 minutes.

Data set [4] is described as follows: UV absorption and fluorescence spectra. It is filed as physicochemical. How it is done: The crude product was then injected onto a semi-preparative HPLC column, where the flow rate was 3 mL/min, with the mobile phase starting from 5% solvent B (0.1%TFA in CH3CN) and 95% solvent A (0.1%TFA in water) (0-3 min) to 65% solvent B and 35% solvent A at 33 min, then going to 85% solvent B and 15% solvent A (33-36 min), maintaining this solvent composition for another three minutes (36-39 min), and returning to initial solvent composition by 42 min. Product elution was monitored at both 218 and 590 nm using a UV-Vis detector. The product peak was collected, lyophilized, and identified by MALDI-TOF-MS. The chemical purity of product was determined by analytical HPLC (same gradient as used for semi-preparative HPLC; flow rate: 1.0 ml/min). The product was re-dissolved in saline at a concentration of 1 mg/mL, and stored in the dark at −80° C. until use. The absorbance spectrum of Cy5.5-2DG was rerecorded on an Agilent 8453 UV-visible ChemStation (Agilent Technologies, Wilmington, DE), and fluorescence spectrum of Cy5.5-2DG was measured on a Fluoromax-3 fluorophotometer (JOBIN YVON/HORIBA, Edison, N.J.).

Data set [5] has as its system murine melanoma cells B16F10. In words: In vitro cell uptake by fluorescence microscopy, B16F10. The class given is cell-based. The settings on record: 1 hour. The method, then: as §1
FIGS. 8A and 8C show a light image (FIG. 8A) and a fluorescent image (FIG. 8C) of murine melanoma cells B16F10 incubated in vitro with Cy5.5-2DG for one hour at 37° C. […] FIGS. 8B and 8D show a light image (FIG. 8B) and a fluorescent image (FIG. 8D) of the same type of cells incubated in vitro with Cy5.5-2DG for one hour at 4° C.

Data set [6] relates to human melanoma (A375M) xenograft. The data set is described as follows: In vivo fluorescence imaging of mice bearing a human melanoma (A375M) xenograft. The conditions noted are these: n=3. The method, then:
Another study was conducted using mice (n=3) bearing a human melanoma (A375M) xenograft. When the tumor reached […] diameter, the mice received via tail vein injection 500 pmol of Cy5.5-2DG compound.

Data set [7] relates to human glioblastoma cells (U87MG). In words: In vitro cell uptake by fluorescence microscopy, U87MG. It is filed as cell-based. The conditions noted are these: 100 nM, 1 hour. The method, then:
Human glioblastoma U87MG cells were cultured in Dulbecco's modified Eagle medium (DMEM, Invitrogen Life Technologies, Carlsbad, Calif.), high glucose plus 10% fetal bovine serum (FBS), and 1% penicillin-streptomycin. The cells were maintained in a humidified atmosphere of 5% CO2 at 37° C., with the medium changed every other day. A confluent monolayer was detached with trypsin and dissociated into a single cell suspension for further cell culture.
as §1, with “After 24 hours, the cells were washed with phosphate-buffered saline (PBS) and then incubated at 37° C. or 4° C. in the presence of 100 nM Cy5.5-2DG for 1 hour. Afterwards, cells were washed in 1 mL ice-cold PBS.” left out
Tumor uptake of the Cy5.5-2DG compound into human glioblastoma cells (U87MG) was determined by incubating the cells in vitro with the compound for one hour at either 37° C. or at 4° C., as described in Example 2. […]

Data set [8] deals with A375M human melanoma cells. The data set is described as follows: In vitro cell uptake by fluorescence microscopy, A375M. The conditions noted are these: 1 hour. It is filed as cell-based. How it is done: as §1
The light images (FIGS. 7A and 7B) show cells in the optical field.

[9] abbreviates: 500 pmol i.v., lateral position.

Regarding `CC[N+]1=C(C=CC=CC=C2N(CCCCCC(=O)NC3C(O)OC(CO)C(O)C3O)c3ccc4c(S(=O)(=O)[O-])cc(S(=O)(=O)O)cc4c3C2(C)C)C(C)(C)c2c1ccc1c(S(=O)(=O)[O-])cc(S(=O)(=O)O)cc21.[K+]` (stereo not shown) [Cy5.5-2DG], the “uptake into the tumor cells” value in [1] (4° C.) is “little of the compound”; in data set [1] (37° C.) it was “resulted in uptake”. For the same compound, the “ratio of fluorescence intensity of tumor tissue to healthy tissue” value in data set [2] (50 pmol i.v., lateral position) is given as “about two”; in data set [2] (50 pmol i.v., prone position, 30 minutes after injection), 1.5; in [2] (50 pmol i.v., prone position, by about 10 hours after injection), “more than two”; in [2] (500 pmol i.v., lateral position, by about five hours post injection) it was “two”; in data set [2] (500 pmol i.v., lateral position, up to 100 hours post injection) it was “around two”. Besides, the “time after injection at which accumulation in the tumor is apparent” value in [2] (50 pmol i.v., lateral position) came to 1 h. Moreover, the “time after injection at which preferential accumulation in the tumor is apparent” value in [2] (50 pmol i.v., prone position) is 30 min. Moreover, the “time to maximum fluorescence intensity” value in [2] (50 pmol i.v., prone position) was at most 30 min. Besides, in data set [2] (setting [9]), the “latest time point with fluorescence of the tumor tissue observed” value was found to be 94 h. For the same compound, the “time by which compound has cleared from the tumor (tumor no longer visible)” value in data set [2] (setting [9]) was at most 114 h. Further, the “time post injection at which localization in the tumor is apparent in the image” value in data set [2] (setting [9]) is recorded as “two”. Further, in data set [2] (500 pmol i.v., prone position), the “time post injection at which accumulation in the tumor is apparent in the image” value was “two”. Also, the “ratio of fluorescence intensity of tumor tissue to healthy tissue (average radiance)” value was 1.5 in data set [2] (500 pmol i.v., prone position, 120 hours post injection); 1.5 in data set [2] (500 pmol i.v., prone position, about 4 hours post-injection); “two” in data set [2] (500 pmol i.v., prone position, about 18 hours post injection). Also, the “ex vivo fluorescence of dissected tumor versus major tissues and organs” value in data set [2] (500 pmol, 45 hours post injection) is listed as “highest fluorescence intensity among the tissues imaged”. For the same compound, the “retention in the tumor” value in data set [2] (after single administration) is “up to 100 hours”. For the same compound, the “uptake into the cells” value in the data set with C6 rat glioma cells (4° C.) is on record as “took up little, if any, of the compound”; in the data set on C6 rat glioma cells (37° C.), “distinct fluorescing cells visible”; in data set [5] (4° C.), “Little, if any”; in [5] (37° C.) it was “Uptake of the compound into the cells is apparent”; in [8] (4° C.), “no apparent fluorescence”; in data set [8] (37° C.) it was “took in the compound”. Besides, the “stability in mouse serum” value in [3] is “stable”. For the same compound, in data set [4], the UV absorption wavelength entry is listed as “about 675 nm”. Also, the fluorescent emission wavelength entry in [4] is “about 694 nm”. The “fluorescence of tumor tissue” value in [6] (500 pmol i.v., 3, 24 and 48 hours post-injection) is on record as “continued preferential fluorescence of tumor tissue”. Also, in data set [6] (500 pmol i.v., 2 hours post-injection), the “localization in the tumor” value was “localization of the compound in the tumor is apparent”. In addition, the results for the “uptake of the fluorescent compound by the cells” value in data set [7] (4° C.) and in [7] (37° C.) were “lack of fluorescing cells” and “considerably more uptake”, respectively.

As to `CCN1\C(=C/C=C/C=C/C2=[N+](CCCCCC(=O)O)c3ccc4c(S(=O)(=O)O)cc(S(=O)(=O)O)cc4c3C2(C)C)C(C)(C)c2c1ccc1c(S(=O)(=O)[O-])cc(S(=O)(=O)O)cc21` [Cy5.5® dye, reference compound], in data set [4], the UV absorption wavelength entry was “about 675 nm” and the fluorescent emission wavelength result is listed as “about 694 nm”.
